Earlier results on 2 compounds are cited in US20230277473A1 (priority 2023, published 2023).

For data set [1] the following is noted: in vivo.

On to `Cc1nc2n(c(=O)c1CCN1CCC(c3noc4cc(F)ccc34)CC1)CCCC2O` (centres unmarked) [9-hydroxyrisperidone], for which, in data set [1], the half-life was 21 h.

On to `Cc1nc2n(c(=O)c1CCN1CCC(c3noc4cc(F)ccc34)CC1)CCCC2` [RPD, risperidone], for which the solubility in water entry was “almost insoluble in water”.
